Assay results published in USRE48461E1, “Modulation of androgen receptor expression” (Ionis Pharmaceuticals, Inc., priority 2012, dated 2021).
Oligonucleotides are written 5' to 3', each unit as a sugar letter and its base; * is a phosphorothioate linkage, no mark a phosphodiester; rarer units and linkages stand in square brackets, end groups in braces. Plain capitals give the bases only. k = constrained ethyl (cEt); d = 2'-deoxy (DNA)

How the values were obtained:
[1] = tested on: AR mRNA; test: Dose-dependent antisense inhibition of human AR in HuVEC cells (electroporation, qRT-PCR RTS3559, IC50); assay type: cell-based
How it was run: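 HuVEC cells dosed with antisense oligonucleotides by electroporation and treated approximately 16 hours. AR mRNA quantified by real-time qPCR with primer probe set RTS3559 and normalised to total RNA by RIBOGREEN; IC50 from dose-response.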

[2] = tested on: AR mRNA; test: AR mRNA in LnCaP cells by free uptake (hAR_LTS00943); assay type: cell-based, human; details: 24 hrs
Description: Cells were plated at a concentration of 4,000 cells/well in 96-well plates. ISIS oligonucleotides, specified in Table 68, were added individually at 0.02 μM, 0.10 μM, 0.50 μM, 2.50 μM, or 10.00 μM. After an incubation period of 24 hrs, mRNA levels were measured using primer probe set hAR_LTS00943.

[3] = tested on: V7 splice variant of the AR mRNA; test: AR V7 splice variant mRNA in CWR22-RV1 cells (RT-PCR SYBR Green); assay type: cell-based, human; details: RNAiMax, 6 days
[4] = cynomolgus monkey, in vivo, sc, 40 mg/kg
[5] = cynomolgus monkey, in vivo, sc, 40 mg/kg; remark: listed apart in the source
[6] = cynomolgus monkey, in vivo, sc, 40 mg/kg; remark: listed apart in the source
Description: Prior to the study, the monkeys were kept in quarantine for a 30-day period, during which the animals were observed daily for general health. The monkeys were 2-4 years old and weighed between 2 and 4 kg. Thirteen groups of four randomly assigned male cynomolgus monkeys each were injected subcutaneously with ISIS oligonucleotide or PBS. PBS solution or ISIS oligonucleotides, at a dose of 40 mg/kg, were administered with a loading regimen consisting of four doses on the first week of the study (days 1, 3, 5, and 7), followed by a maintenance regimen consisting of once weekly administration starting on Day 14 (weeks 2 to 6). Subcutaneous injections were performed in clock-wise rotations at 4 sites on the back; one site per dose. The injection sites were delineated by tattoo, while sedated using ketamine, and were separated by a minimum of 3 cm.
To evaluate the effect of ISIS oligonucleotides on kidney function, the monkeys were fasted overnight. Approximately, 1.5 mL of blood samples were collected from all the study groups on day 44. Blood was collected in tubes without anticoagulant for serum separation. The tubes were kept at room temperature for a minimum of 90 min and then centrifuged at 3,000 rpm for 10 min. Levels of BUN and creatinine were measured using a Toshiba 120FR NEO chemistry analyzer (Toshiba Co., Japan).

[7] = cynomolgus monkey, in vivo, sc, 40 mg/kg; remark: listed apart in the source
Description: The monkeys were 2-4 years old and weighed between 2 and 4 kg. Thirteen groups of four randomly assigned male cynomolgus monkeys each were injected subcutaneously with ISIS oligonucleotide or PBS. PBS solution or ISIS oligonucleotides, at a dose of 40 mg/kg, were administered with a loading regimen consisting of four doses on the first week of the study (days 1, 3, 5, and 7), followed by a maintenance regimen consisting of once weekly administration starting on Day 14 (weeks 2 to 6). Subcutaneous injections were performed in clock-wise rotations at 4 sites on the back; one site per dose. The injection sites were delineated by tattoo, while sedated using ketamine, and were separated by a minimum of 3 cm.
To evaluate any inflammatory effect of ISIS oligonucleotides in cynomolgus monkeys, the monkeys were fasted overnight. Approximately, 1.5 mL of blood samples were collected from all the study groups on day 44. Blood was collected in tubes without anticoagulant for serum separation. The tubes were kept at room temperature for a minimum of 90 min and then centrifuged at 3,000 rpm for 10 min. C-reactive protein (CRP), which is synthesized in the liver and which serves as a marker of inflammation, was measured on day 43 using a Toshiba 120FR NEO chemistry analyzer (Toshiba Co., Japan). Complement C3 was also measured similarly, and the data is presented as a percentage of baseline values.

[8] = Body and organ weights in cynomolgus monkeys; details: cynomolgus monkey, 40 mg/kg s.c.

549458 (kG*kT*kT*dG*dA*dT*dT*dT*dA*dA*dT*dG*dG*kT*kT*kG) [compound 549458]
percent inhibition of AR ([1]; 31.25 nM, HuVEC, ~16 h, Table 6): 15% | percent inhibition of AR ([1]; 31.25 nM, HuVEC, ~16 h, Table 8): 30% | percent inhibition of AR ([1]; 31.25 nM, HuVEC, ~16 h, Table 14): 0% | percent inhibition of AR ([1]; 46.9 nM, HuVEC, ~16 h, Table 15): 15% | percent inhibition of AR ([1]; 55.6 nM, HuVEC, ~16 h, Table 4): 48% | percent inhibition of AR ([1]; 62.5 nM, HuVEC, ~16 h, Table 6): 25% | percent inhibition of AR ([1]; 62.5 nM, HuVEC, ~16 h, Table 8): 36% | percent inhibition of AR ([1]; 62.5 nM, HuVEC, ~16 h, Table 10): 25% | percent inhibition of AR ([1]; 62.5 nM, HuVEC, ~16 h, Table 11): 16% | percent inhibition of AR ([1]; 62.5 nM, HuVEC, ~16 h, Table 12): 19% | percent inhibition of AR ([1]; 62.5 nM, HuVEC, ~16 h, Table 14): 19% | percent inhibition of AR ([1]; 125.0 nM, HuVEC, ~16 h, Table 6): 47% | percent inhibition of AR ([1]; 125.0 nM, HuVEC, ~16 h, Table 8): 54% | percent inhibition of AR ([1]; 125.0 nM, HuVEC, ~16 h, Table 10): 46% | percent inhibition of AR ([1]; 125.0 nM, HuVEC, ~16 h, Table 11): 22% | percent inhibition of AR ([1]; 125.0 nM, HuVEC, ~16 h, Table 12): 22% | percent inhibition of AR ([1]; 125.0 nM, HuVEC, ~16 h, Table 14): 40% | percent inhibition of AR ([1]; 166.7 nM, HuVEC, ~16 h, Table 4): 84% | percent inhibition of AR ([1]; 187.5 nM, HuVEC, ~16 h, Table 15): 50% | percent inhibition of AR ([1]; 500.0 nM, HuVEC, ~16 h, Table 4): 97% | percent inhibition of AR ([1]; 500.0 nM, HuVEC, ~16 h, Table 6): 88% | percent inhibition of AR ([1]; 500.0 nM, HuVEC, ~16 h, Table 8): 85% | percent inhibition of AR ([1]; 500.0 nM, HuVEC, ~16 h, Table 10): 64% | percent inhibition of AR ([1]; 500.0 nM, HuVEC, ~16 h, Table 11): 64% | percent inhibition of AR ([1]; 500.0 nM, HuVEC, ~16 h, Table 12): 38% | percent inhibition of AR ([1]; 500.0 nM, HuVEC, ~16 h, Table 14): 74% | percent inhibition of AR ([1]; 750.0 nM, HuVEC, ~16 h, Table 15): 85% | percent inhibition of AR ([1]; 1000.0 nM, HuVEC, ~16 h, Table 6): 93% | percent inhibition of AR ([1]; 1000.0 nM, HuVEC, ~16 h, Table 8): 90% | percent inhibition of AR ([1]; 1000.0 nM, HuVEC, ~16 h, Table 10): 78% | percent inhibition of AR ([1]; 1000.0 nM, HuVEC, ~16 h, Table 11): 74% | percent inhibition of AR ([1]; 1000.0 nM, HuVEC, ~16 h, Table 12): 71% | percent inhibition of AR ([1]; 1000.0 nM, HuVEC, ~16 h, Table 14): 90% | percent inhibition of AR ([1]; 1500.0 nM, HuVEC, ~16 h, Table 4): 98% | percent inhibition of AR ([1]; 3000.0 nM, HuVEC, ~16 h, Table 15): 96% | IC50 ([1]; HuVEC cells, electroporation): 190 nM | inhibition of AR mRNA at 46.9 nM ([1]; HuVEC cells, electroporation, 46.9 nM ASO): 15% | inhibition of AR mRNA at 187.5 nM ([1]; HuVEC cells, electroporation, 187.5 nM ASO): 50% | inhibition of AR mRNA at 750.0 nM ([1]; HuVEC cells, electroporation, 750.0 nM ASO): 85% | inhibition of AR mRNA at 3000.0 nM ([1]; HuVEC cells, electroporation, 3000.0 nM ASO): 96% | IC50 ([1]; HuVEC, ~16 h, Table 4): 57 nM | IC50 ([1]; HuVEC, ~16 h, Table 6): 100 nM | IC50 ([1]; HuVEC, ~16 h, Table 8): 100 nM | IC50 ([1]; HuVEC, ~16 h, Table 10): 203 nM | IC50 ([1]; HuVEC, ~16 h, Table 11): 324 nM | IC50 ([1]; HuVEC, ~16 h, Table 12): 470 nM | IC50 ([1]; HuVEC, ~16 h, Table 14): 196 nM | IC50 ([1]; HuVEC, ~16 h, Table 15): 190 nM | percent inhibition of AR, 46.9 nM ([1]; Table 29, 46.9 nM, HuVEC, electroporation, approximately 16 hours): 21% | percent inhibition of AR, 187.5 nM ([1]; Table 29, 187.5 nM, HuVEC, electroporation, approximately 16 hours): 72% | percent inhibition of AR, 750.0 nM ([1]; Table 29, 750.0 nM, HuVEC, electroporation, approximately 16 hours): 91% | percent inhibition of AR, 3000.0 nM ([1]; Table 29, 3000.0 nM, HuVEC, electroporation, approximately 16 hours): 97% | IC50 ([1]; Table 29, HuVEC, electroporation, approximately 16 hours): 110 nM | percent inhibition of AR, 46.9 nM ([1]; Table 30, 46.9 nM, HuVEC, electroporation, approximately 16 hours): 22% | percent inhibition of AR, 187.5 nM ([1]; Table 30, 187.5 nM, HuVEC, electroporation, approximately 16 hours): 62% | percent inhibition of AR, 750.0 nM ([1]; Table 30, 750.0 nM, HuVEC, electroporation, approximately 16 hours): 92% | percent inhibition of AR, 3000.0 nM ([1]; Table 30, 3000.0 nM, HuVEC, electroporation, approximately 16 hours): 97% | IC50 ([1]; Table 30, HuVEC, electroporation, approximately 16 hours): 130 nM | percent inhibition of AR, 46.9 nM ([1]; Table 31, 46.9 nM, HuVEC, electroporation, approximately 16 hours): 24% | percent inhibition of AR, 187.5 nM ([1]; Table 31, 187.5 nM, HuVEC, electroporation, approximately 16 hours): 59% | percent inhibition of AR, 750.0 nM ([1]; Table 31, 750.0 nM, HuVEC, electroporation, approximately 16 hours): 92% | percent inhibition of AR, 3000.0 nM ([1]; Table 31, 3000.0 nM, HuVEC, electroporation, approximately 16 hours): 98% | IC50 ([1]; Table 31, HuVEC, electroporation, approximately 16 hours): 130 nM | percent inhibition of AR, 46.9 nM ([1]; Table 32, 46.9 nM, HuVEC, electroporation, approximately 16 hours): 19% | percent inhibition of AR, 187.5 nM ([1]; Table 32, 187.5 nM, HuVEC, electroporation, approximately 16 hours): 58% | percent inhibition of AR, 750.0 nM ([1]; Table 32, 750.0 nM, HuVEC, electroporation, approximately 16 hours): 89% | percent inhibition of AR, 3000.0 nM ([1]; Table 32, 3000.0 nM, HuVEC, electroporation, approximately 16 hours): 96% | IC50 ([1]; Table 32, HuVEC, electroporation, approximately 16 hours): 150 nM | percent inhibition of AR, 46.9 nM ([1]; Table 33, 46.9 nM, HuVEC, electroporation, approximately 16 hours): 21% | percent inhibition of AR, 187.5 nM ([1]; Table 33, 187.5 nM, HuVEC, electroporation, approximately 16 hours): 61% | percent inhibition of AR, 750.0 nM ([1]; Table 33, 750.0 nM, HuVEC, electroporation, approximately 16 hours): 90% | percent inhibition of AR, 3000.0 nM ([1]; Table 33, 3000.0 nM, HuVEC, electroporation, approximately 16 hours): 96% | IC50 ([1]; Table 33, HuVEC, electroporation, approximately 16 hours): 130 nM | percent inhibition of AR, 46.9 nM ([1]; Table 34, 46.9 nM, HuVEC, electroporation, approximately 16 hours): 14% | percent inhibition of AR, 187.5 nM ([1]; Table 34, 187.5 nM, HuVEC, electroporation, approximately 16 hours): 53% | percent inhibition of AR, 750.0 nM ([1]; Table 34, 750.0 nM, HuVEC, electroporation, approximately 16 hours): 84% | percent inhibition of AR, 3000.0 nM ([1]; Table 34, 3000.0 nM, HuVEC, electroporation, approximately 16 hours): 95% | IC50 ([1]; Table 34, HuVEC, electroporation, approximately 16 hours): 180 nM | percent inhibition of AR, 46.9 nM ([1]; Table 35, 46.9 nM, HuVEC, electroporation, approximately 16 hours): 13% | percent inhibition of AR, 187.5 nM ([1]; Table 35, 187.5 nM, HuVEC, electroporation, approximately 16 hours): 49% | percent inhibition of AR, 750.0 nM ([1]; Table 35, 750.0 nM, HuVEC, electroporation, approximately 16 hours): 84% | percent inhibition of AR, 3000.0 nM ([1]; Table 35, 3000.0 nM, HuVEC, electroporation, approximately 16 hours): 91% | IC50 ([1]; Table 35, HuVEC, electroporation, approximately 16 hours): 190 nM | percent inhibition of AR, 46.9 nM ([1]; Table 36, 46.9 nM, HuVEC, electroporation, approximately 16 hours): 1% | percent inhibition of AR, 187.5 nM ([1]; Table 36, 187.5 nM, HuVEC, electroporation, approximately 16 hours): 51% | percent inhibition of AR, 750.0 nM ([1]; Table 36, 750.0 nM, HuVEC, electroporation, approximately 16 hours): 83% | percent inhibition of AR, 3000.0 nM ([1]; Table 36, 3000.0 nM, HuVEC, electroporation, approximately 16 hours): 96% | IC50 ([1]; Table 36, HuVEC, electroporation, approximately 16 hours): 230 nM | Percent inhibition of AR mRNA ([2]; 0.02 μM): 4% | Percent inhibition of AR mRNA ([2]; 0.1 μM): 14% | Percent inhibition of AR mRNA ([2]; 0.5 μM): 67% | Percent inhibition of AR mRNA ([2]; 10 μM): 89%

GTTGATTTAATGGTTG (all phosphorothioate, sugars by position not given here; further chemistry not fully specified) [ISIS 549458]
Percent inhibition of AR splice variant, V7 ([3]; dose 5.0 nM): 34% | Percent inhibition of AR splice variant, V7 ([3]; dose 16.7 nM): 58% | Percent inhibition of AR splice variant, V7 ([3]; dose 50.0 nM): 82%

TGATTTAATGGTTGCA [ISIS 569236] (cEt/MOE gapmer chemistry, further chemistry not given here)
Body Wt [4]: 2.4 kg | Heart weight [4]: 8.4 g | Kidney weight [4]: 12 g | Liver weight [4]: 56 g | Mesenteric lymph nodes weight [4]: 2.4 g | Spleen weight [4]: 3.2 g | ALT [5]: 35 IU/L | AST [5]: 45 IU/L | Albumin [5]: 4.1 g/dL | Plasma BUN [6]: 24.9 mg/dL | Plasma Creatinine [6]: 0.87 mg/dL | C3 (% of baseline) [7]: 103 % of baseline | CRP [7]: 2.6 mg/dL

TTGATTTAATGGTTGC [ISIS 560131] (MOE and (S)-cEt gapmer chemistry, further chemistry not given here)
Body Wt [4]: 2.4 kg | Heart weight [4]: 9.8 g | Kidney weight [4]: 12 g | Liver weight [4]: 58 g | Mesenteric lymph nodes weight [4]: 2.0 g | Spleen weight [4]: 2.5 g | ALT [5]: 68 IU/L | AST [5]: 87 IU/L | Albumin [5]: 4.0 g/dL | Plasma BUN [6]: 23.7 mg/dL | Plasma Creatinine [6]: 0.84 mg/dL | C3 (% of baseline) [7]: 100 % of baseline | CRP [7]: 1.7 mg/dL | tolerability: body and organ weights [8]: well tolerated in terms of the body and organ weights of the monkeys
